Values quoted from earlier work, collected in article PMC2219267 (The Journal of General Physiology, 1996).

Biological target: T1, band 3 (Homo sapiens, UniProt P02730)
T1 sequence (P02730 1-911): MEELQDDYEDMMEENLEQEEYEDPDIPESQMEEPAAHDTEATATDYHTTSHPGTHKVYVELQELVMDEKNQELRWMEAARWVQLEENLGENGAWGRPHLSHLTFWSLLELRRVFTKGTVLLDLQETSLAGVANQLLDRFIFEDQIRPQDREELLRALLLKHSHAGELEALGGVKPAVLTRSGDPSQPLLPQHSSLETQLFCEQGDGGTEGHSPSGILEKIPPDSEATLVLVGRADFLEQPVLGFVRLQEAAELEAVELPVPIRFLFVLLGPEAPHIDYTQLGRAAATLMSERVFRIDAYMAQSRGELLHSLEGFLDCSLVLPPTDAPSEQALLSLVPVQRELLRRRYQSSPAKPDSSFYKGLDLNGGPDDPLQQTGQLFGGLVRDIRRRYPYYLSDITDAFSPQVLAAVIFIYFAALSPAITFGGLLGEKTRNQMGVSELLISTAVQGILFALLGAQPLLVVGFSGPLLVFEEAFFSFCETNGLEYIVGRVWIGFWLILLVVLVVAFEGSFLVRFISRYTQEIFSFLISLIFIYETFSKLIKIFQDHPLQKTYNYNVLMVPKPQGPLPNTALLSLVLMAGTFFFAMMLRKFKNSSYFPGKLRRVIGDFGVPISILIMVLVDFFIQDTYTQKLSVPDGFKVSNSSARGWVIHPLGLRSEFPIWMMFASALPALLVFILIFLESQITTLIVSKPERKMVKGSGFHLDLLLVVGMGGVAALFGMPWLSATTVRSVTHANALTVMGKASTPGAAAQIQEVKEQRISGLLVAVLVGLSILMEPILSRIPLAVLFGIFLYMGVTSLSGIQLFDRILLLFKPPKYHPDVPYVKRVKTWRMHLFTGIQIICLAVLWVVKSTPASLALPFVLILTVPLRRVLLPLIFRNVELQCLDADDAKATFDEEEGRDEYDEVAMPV
Details: cited from earlier work

## [I-].[K+] [iodide, potassium iodide]
0°C, pH 7.4, ref Dalmark and Wieth, 1972
  transport rate relative to Cl-: 260 times slower
Ref Bjerrum (1992)
  1/R, ratio of dissociation constants alkaline/neutral state: 35.8
  R = K++I/K+I, ratio of I- dissociation constants for neutral and alkaline forms: 0.0279
